Laboratory results as given in patent publication US11407999B2, “Pharmaceutical composition for preventing or treating angiogenesis relating ocular diseases comprising inhibitors of MCT expression or activity” (Seoul National University R&DB Foundation, priority 2019, dated 2022).

Experiments:
THP-1 macrophages = experiment: VEGF expression/secretion in lactic acid-treated PMA-differentiated THP-1 macrophages (real-time PCR, ELISA); type: cell-based, human
Experimental: (§1) HUVEC (Human umbilical vein endothelial cell; Lonza Ltd., Basel, Switzerland) was cultured in EGM-2 (endothelial growth medium-2; Lonza). A human acute monocytic leukemia THP-1 cell line was maintained in RPMI medium containing 10% FBS (Gibco). 15 ng/ml PMA (Sigma-Aldrich Corp., St. Louis, Mo., USA) and THP-1 cells were cultured under the conditions of 37° C., 5% CO2 for 2 days, and the THP-1 cells were differentiated into macrophages.
The confluent ARPE-19 monolayer cells maintained in the 24-well plate were incubated with 10 mM L(+)-lactic acid (Sigma-Aldrich Corp.) under presence or absence of α-CHC (α-cyano-4-hydroxycinnamic acid; Sigma-Aldrich) which was an MCT inhibitor (monocarboxylate transporter inhibitor) of 3 mM for a specified period. HUVEC was inoculated to a 24-well plate at a density of 1×10^5/well, and when cells reached 60% to 70% confluence, cells were exposed to 10 mM L(+)-lactic acid under presence or absence of 3 mM α-CHC. The THP-1 cells were inoculated in a 24-well plate at a density of 3)(10^5/well, and they were differentiated into macrophages by PMA treatment, and then were cultured with 20 mM L(+)-lactic acid under presence or absence of 3 mM α-CHC.
In addition, the THP-1 cells were inoculated to a 24-well plate at a density of 3)(10^5/well, and were differentiated into macrophages by PMA treatment, and then were cultured with 20 mM L(+)-lactic acid, by treating SR13800 (Tocris Bioscience, Bristol, UK) at a concentration of 0.5 to 2 μM and AR-C155858 at a concentration of 300 to 500 nM, respectively, thereto.
Cells were treated with lactic acid for 24 hours. The medium was collected and centrifuged at 587 g for 5 minutes and particles were removed and stored at −80° C. before performing ELISA.
(§2) The retina and RPE-choroid tissue were isolated from the control (naive; normal group in which CNV was not induced) CNV mouse (on day 3 after laser irradiation) or diabetic retinopathy mouse (on week 20 after STZ administration), and the isolated tissue was homogenized in ice-cold RIPA lysis buffer (Thermo Scientific, Rockford, Ill., USA) containing 1% protease inhibiting cocktail and 1% phosphatase inhibiting cocktail (GenDEPOT, Katy, Tex., USA). After centrifuging at 15,871 g for 15 minutes, the isolated supernatant was used for ELISA analysis. Secretion of VEGF was measured using ELISA Duoset system (R & D Systems, Minneapolis, Minn., USA) according to the manufacturer's instructions.
Total RNA was extracted in cells using trizole (Invitrogen, Carlsbad, Calif., USA) according to the manufacturer's instructions. RNA concentration/quality was evaluated using a nanodrop spectrophotometer (NanoDrop Technology, Wilmington, Del., USA). An equal amount of RNA was under reverse transcription to cDNA using a reverse transcription kit (Enzynomics, Daejeon, Korea), and quantitative real-time PCR (ABI PRISM 7900, Applied Biosystems) was performed using SYBR Green PCR Master Mix (Applied Biosystems, Foster City, Calif., USA) to measure gene expression. In 12 minutes at 95° C., a cycle consisting of 10 seconds at 95° C. and 30 seconds at 60° C. was performed 50 times.
Relative mRNA expression of each sample was standardized by β-actin and RPL37A, and statistics were analyzed using Student's unpaired t-test. The sequences of primers used for amplification were disclosed in the following Table 1.

[1] = tested on: diabetic retinopathy-induced mice; experiment: ELISA of VEGF protein in retina and RPE-choroid of STZ diabetic retinopathy-induced mice; type: in vivo, mouse; details: intravitreal 2 μM SR13800 2 μl, FIG. 13
Experimental: (§3) After administering STZ (streptozotocin, Sigma) to the peritoneal cavity of male C57BL6/J mice aged 7 to 8 weeks, whether high blood glucose was induced was confirmed by measuring blood glucose in 2 days. Mice of which blood glucose was induced to 400 mg/dL or more were selected, and used in the following experiment. From about 10 weeks after administering STZ, diabetic retinopathy began to appear.
(§4) At about day 140 after administrating STZ to the diabetic retinopathy-induced mice, 3 mM a-CHC 2 μl dissolved in PBS, 2 μM SR13800 2 μl dissolved in PBS, or PBS (vehicle) […] was intravitreally injected and it was used in the following experiment.
as §2

[2] = tested on: diabetic retinopathy-induced mice; experiment: IB4 staining of retina of STZ diabetic retinopathy-induced mice (bleeding and angiogenesis); type: in vivo, mouse; details: intraocular (intravitreal) injection, FIG. 14
Experimental: as §3, §4
Eyes of mice in which diabetes was induced by STZ, prepared by the method of Referential example 3 were extracted and fixed in 4% paraformaldehyde for 1 hour. The anterior segment was removed, and then the retinal tissue was cultured with FITC-conjugated isolectin B4 (Sigma) at 4° C. overnight. After washing with PBS for 10 minutes 10 times using an orbital shaker at a room temperature, the stained tissue was examined under Olympus FV1000 Confocal Scanning Scope.

ARPE-19 = experiment: VEGF expression in lactic acid-treated ARPE-19 retinal pigment epithelium cells; type: cell-based, human; details: ARPE-19, 10 mM lactic acid vs untreated control; FIG. 4a
Experimental: Human APRE-19 cells were obtained from ATCC (Manassas, Va., USA), and were cultured in DMEM (Dulbecco's modified Eagle's medium)/F12 medium (1:1, USA) supplemented by 10% bovine fetal serum (FBS) (Gibco, Carlsbad, Calif.), 1% penicillin-streptomycin (Gibco) and 2 mM L-glutamine (Gibco) in a wet incubator under the conditions of 37° C., 5% CO2. For ARPE-19 monolayer culture, ARPE-19 cells were inoculated in a 24-well tissue culture plate (1.53105 cells per well; Corning, Corning, N.Y., USA) and were maintained in DMEM/F12 medium in which serum was reduced (1% FBS). Confluent monolayer culture having TER (Transepithelial resistance) of 40 Ωcm2 or more was used in the experiment. […]
(§5) Total RNA was extracted in cells using trizole (Invitrogen, Carlsbad, Calif., USA) according to the manufacturer's instructions. RNA concentration/quality was evaluated using a nanodrop spectrophotometer (NanoDrop Technology, Wilmington, Del., USA). An equal amount of RNA was under reverse transcription to cDNA using a reverse transcription kit (Enzynomics, Daejeon, Korea), and quantitative real-time PCR (ABI PRISM 7900, Applied Biosystems) was performed using SYBR Green PCR Master Mix (Applied Biosystems, Foster City, Calif., USA) to measure gene expression. […]

HUVEC [3] = experiment: VEGF expression in lactic acid-treated HUVEC; type: cell-based, human; details: 10 mM lactic acid vs untreated control, FIG. 4b
Experimental: as §1
The confluent ARPE-19 monolayer cells maintained in the 24-well plate were incubated with 10 mM L(+)-lactic acid (Sigma-Aldrich Corp.) under presence or absence of α-CHC (α-cyano-4-hydroxycinnamic acid; Sigma-Aldrich) which was an MCT inhibitor (monocarboxylate transporter inhibitor) of 3 mM for a specified period. […]
as §5

HUVEC [4] = experiment: Tube formation assay in HUVEC with macrophage conditioned medium; type: cell-based, human; details: for tube formation: FIG. 6a
Experimental: Matrigel (Corning) with reduced growth factors was thawed at 4° C. overnight. Each well of the 24-well plate cooled in advance was coated with […] and incubated at 37° C. for 40 minutes. HUVEC (3×10^4 cells) was suspended in EGM-2 medium of 100 μl, and aliquoted in a macrophage conditioned medium of 400 μl, and cultured under the condition of 37° C., 5% CO2 for 12 hours. The macrophage conditioned medium means that 20 mM lactic acid is treated for 24 hours by stimulating macrophages (or macrophages pretreated for 1 hour with α-CHC) and the medium was replaced and then the supernatant was collected.
Endothelial cell tube formation was visualized by Calcein AM (Corning) and then imaging was conducted using Leica CTR6000 fluorescence microscope (Wetzlar, Germany). The number of the capillary-like structure was quantified by manual counting of low-power field (×10). For each well, 5 independent fields were evaluated, and the mean branch number per field (magnification, ×10) was measured.

CNV mice [5] = experiment: Flow cytometry for VEGF in macrophages of CNV mice after intravitreal injection; type: in vivo, mouse; details: intravitreal 3 mM α-CHC 2 μl on day 1 after laser, vs vehicle group, FIG. 8a, 8b
Experimental: (§6) Female C57BL/6J mice aged 7 to 8 weeks were anesthetized by intraperitoneally injecting a mixture of Ketamine 100 mg/kg and Xylazine 10 mg/kg, and by dropping 1% tropicamide (Alcon Laboratories Inc., Fort Worth, Tex., USA) in eyes, the pupils of the mice were expanded. Laser was irradiated in a direction of 3, 6, 9 and 12 o'clock direction of the 2 disc diameter in an optic disc by 831-nm 106 diode laser photocoagulation method (75 μm spot size, 0.1 sec duration time, 120 mW). Bubbling or pop sensing by laser photocoagulation was considered a successful rupture of the Bruch membrane.
(§7) To evaluate the anti-angiogenic effect by blocking lactic acid intake in macrophages, on day 1 after laser irradiation, when the macrophages began to infiltrate the laser irradiation site (image area), 3 mM α-CHC 2 μl or PBS (vehicle) 2 μl dissolved in PBS was intravitreally injected, and it was used in the following experiment.
After laser irradiation, on day 1, 3, 7, 14 and 21, laser-irradiated eyes were extracted. […]
Cells labeled using LSR-II cytometer (BD Biosciences, San Jose, Calif., USA) were analyzed and data were analyzed using FlowJo software (version 7.6.2, Ashland, Oreg., USA).

CNV mice [6] = experiment: Immunohistological staining for F4/80 and VEGF in RPE-choroid of CNV mice; type: in vivo, mouse; details: day 3 after laser irradiation
Experimental: as §6, §7
Laser was irradiated to mice by the method of Referential example 2, and on day 3, eyes were extracted from mice, and fixed in 4% paraformaldehyde for 1 hour. After removing the retina, the RPE-choroid tissue was cultured with rat anti-mouse F4/80 (Bio-Rad, Richmond, Calif., USA) and APC conjugated anti-mouse VEGF (C-1; Santa Cruz Biotechnology, Inc.) at […] overnight. […] The regions of infiltrated macrophages and secreted VEGF were measured using ImageJ software.

CNV mice [7] = experiment: ELISA of VEGF protein in RPE/choroid and retina of CNV mice; type: in vivo, mouse; details: RPE/choroid tissue of CNV mice, vs vehicle group, FIG. 8e
Experimental: (§8) Female C57BL/6J mice aged 7 to 8 weeks were anesthetized by intraperitoneally injecting a mixture of Ketamine 100 mg/kg and Xylazine 10 mg/kg, and by dropping 1% tropicamide (Alcon Laboratories Inc., Fort Worth, Tex., USA) in eyes, the pupils of the mice were expanded. Laser was irradiated in a direction of 3, 6, 9 and 12 o'clock direction of the 2 disc diameter in an optic disc by 831-nm 106 diode laser photocoagulation method (75 μm spot size, 0.1 sec duration time, 120 mW). Bubbling or pop sensing by laser photocoagulation was considered a successful rupture of the Bruch membrane. […]
The retina and RPE-choroid tissue were isolated from the control (naive; normal group in which CNV was not induced) CNV mouse (on day 3 after laser irradiation) or diabetic retinopathy mouse (on week 20 after STZ administration), and the isolated tissue was homogenized in ice-cold RIPA lysis buffer (Thermo Scientific, Rockford, Ill., USA) containing 1% protease inhibiting cocktail and 1% phosphatase inhibiting cocktail (GenDEPOT, Katy, Tex., USA). […] Secretion of VEGF was measured using ELISA Duoset system (R & D Systems, Minneapolis, Minn., USA) according to the manufacturer's instructions.

CNV mice [8] = experiment: Quantification of choroidal neovascularization (IB4 staining) in CNV mice; type: in vivo, mouse; details: RPE-choroid tissue of CNV mice, day 7 after laser irradiation; vehicle group 141,472.9±49,186; FIG. 8f, 8g
Experimental: as §8
For evaluation of CNV, on day 1 after laser irradiation, PBS or α-CHC was injected in eyes, and in 6 days (on day 7 after laser irradiation), the RPE-choroid tissue isolated from the eyes of CNV mice was immunohistologically stained with Alexa-Fluor 594-conjugated IB4 (isolectin B4) (Molecular Probes) to visualize CNV. Images obtained by Olympus FV1000 Confocal Scanning Scope were treated in IMARIS imaging software (Bitplane, Zurich, Switzerland) to quantify the IB4-positive CNV amount.

## Cc1n[nH]c(C)c1Cc1sc2c(c1C(=O)N1C[C@H](O)CO1)c(=O)n(C)c(=O)n2CC(C)C [AR-C155858]
THP-1 macrophages; THP-1 macrophages, 20 mM lactic acid plus AR-C155858 300 to 500 nM, FIG. 9b
  VEGF expression increased by lactic acid: does not show significant changes

## CC(C)Cc1nn(C)c(=O)c2c(SCCCO)n(Cc3cccc4ccccc34)cc12 [SR13800]
THP-1 macrophages; THP-1 macrophages, 20 mM lactic acid plus SR13800 0.5 to 2 μM vs only lactic acid, dependent on inhibitor concentration, FIG. 9a
  VEGF secretion: reduced
[1]; RPE-choroid tissue
  VEGF expression in the RPE-choroid tissue: did not affect
[1]; retinal tissue
  VEGF expression increased in the retinal tissue by induction of diabetic retinopathy: significantly reduced
[2]
  bleeding and angiogenesis increased in the diabetic retinopathy model: significantly reduced

## CC(O)C(=O)O (stereo not drawn) [lactic acid, L(+)-lactic acid]
THP-1 macrophages; PMA-differentiated THP-1 macrophages, 20 mM lactic acid vs untreated control, FIG. 4c
  increase of VEGF expression after treatment of lactic acid: ≥ 3 times
THP-1 macrophages; THP-1 macrophages, 24 hours, FIG. 5
  increase of VEGF secretion after stimulating with lactic acid: about 5 times
ARPE-19
  gene transcriptome and protein expression for VEGF: did not change significantly
HUVEC [3]
  gene transcriptome and protein expression for VEGF: did not change significantly
HUVEC [4]; HUVEC with supernatant of lactic acid-stimulated macrophages vs lactic acid untreated group, FIG. 6b
  increase of number of branches: about 5 times
HUVEC [4]; HUVEC with supernatant of macrophages stimulated with 20 mM lactic acid
  tube formation: significantly increased

## N#CC(=Cc1ccc(O)cc1)C(=O)O [α-CHC, α-cyano-4-hydroxycinnamic acid]
THP-1 macrophages; THP-1 macrophages, lactic acid plus α-CHC vs only lactic acid, dependent on inhibitor concentration, FIG. 5
  VEGF secretion (VEGF expression): reduced
HUVEC [4]; HUVEC with supernatant of macrophages pretreated with α-CHC then lactic acid, vs only lactic acid, FIG. 6b
  number of branches: significantly reduced
HUVEC [4]; HUVEC with supernatant of macrophages pretreated with α-CHC then lactic acid
  tube formation: reduced
CNV mice [5]
  VEGF expression (relative mean fluorescence intensity): significantly reduced
CNV mice [6]; intravitreal injection, vehicle group 523,378±165,071, FIG. 8c, 8d
  VEGF positive region in the F4/80 stained macrophage region: 383,738±196,716 μm2
CNV mice [6]; vs vehicle group, FIG. 8d
  area of infiltrated macrophages: no significant difference
CNV mice [7]
  amount of VEGF protein increased by CNV induction: significantly reduced
CNV mice [8]
  IB4-positive endothelial cells (CNV amount): 74,160.6±12,339.5 μm^3
[2]
  bleeding and angiogenesis increased in the diabetic retinopathy model: reduced
